# In patent publication US12091410B2, “Heterocyclic compound” (Takeda Pharmaceutical Company Limited, priority 2018, dated 2024):
# Biological target: T1, human orexin type 2 receptor (Homo sapiens, UniProt O43614)
# T1 construct: expressed in transfected cells
# T1 sequence (O43614 1-444): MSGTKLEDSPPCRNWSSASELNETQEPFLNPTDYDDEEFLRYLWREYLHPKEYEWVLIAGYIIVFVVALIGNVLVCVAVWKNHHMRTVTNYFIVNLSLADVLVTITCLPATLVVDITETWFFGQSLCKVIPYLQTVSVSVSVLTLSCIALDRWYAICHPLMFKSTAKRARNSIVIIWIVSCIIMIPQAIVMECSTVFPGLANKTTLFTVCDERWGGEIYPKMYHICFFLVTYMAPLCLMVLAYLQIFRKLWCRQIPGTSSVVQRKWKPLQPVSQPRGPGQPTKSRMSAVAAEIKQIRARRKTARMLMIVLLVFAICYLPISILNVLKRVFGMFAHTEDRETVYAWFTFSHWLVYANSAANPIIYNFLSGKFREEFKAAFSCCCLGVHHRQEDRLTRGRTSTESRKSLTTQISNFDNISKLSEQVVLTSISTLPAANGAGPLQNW
# Test: Measurement of orexin type 2 receptor agonist activity (calcium fluorescence, Fluo-4 AM, CHO cells forcibly expressing human OX2 receptor)
# Format: cell-based
# Settings: test compound 3 μM, DMSO = 0%, orexin A (human) 10 nM = 100%
# Text: To obtain a cell clone stably expressing human orexin type 2 receptor, human orexin type 2 receptor cDNA was inserted into pcDNA3.1(+) plasmid vector (Invitrogen), and a plasmid DNA for expression of human orexin type 2 receptor (pcDNA3.1(+)/hOX2R) was cloned. The plasmid DNA was introduced into CHO-dhfr cell by an electroporation method, and human orexin type 2 receptor expressing clone cells were obtained by limiting dilution method by using G418 drug resistance as a selection marker.
# CHO cells forcibly expressing human OX2 receptor were seeded in each well of 384 well black transparent bottom plate (BD Falcon) at 7,500 cells/well, and cultured for one day in a 5% CO2 incubator at 37° C. After removal of the medium in the cell plate, assay buffer A containing a calcium indicator (HBSS (Thermo Fisher Scientific), 20 mM HEPES (Thermo Fisher Scientific), 0.1% BSA (Sigma-Aldrich), 2.5 μg/mL Fluo-4 AM (DOJINDO Chemical), 0.08% Pluronic F127 (DOJINDO Chemical), 1.25 mM probenecid (DOJINDO Chemical)) was added at 30 μL/well. The plate was stood for 30 min in a 5% CO2 incubator at 37° C., and further stood at room temperature for 30 min. A test compound prepared by diluting with assay buffer B (HBSS, 20 mM HEPES, 0.1% BSA) was added at 10 μL/well, and the fluorescence value was measured by FDSSpCELL (Hamamatsu Photonics K. K.) every one sec for 1 min, and thereafter every two sec for 1 min 40 sec. The activity (%) of the test compound was calculated assuming that variation in the fluorescence value when DMSO was added instead of the test compound was 0%, and variation in the fluorescence value when orexin A (human) (PEPTIDE INSTITUTE, INC.) was added at the final concentration of 10 nM was 100%.
row,"OX2R agonist activity (3 μM, %) [%]",Structure (SMILES)
1,80,"CCc1cc2n(n1)[C@@H](COC1CCN(c3ccccn3)CC1)[C@@H](NS(C)(=O)=O)CC2 (racemic) [Example 42, rac-N-[(6S,7R)-2-ethyl-7-({[1-(pyridin-2-yl)piperidin-4-yl]oxy}methyl)-4,5,6,7-tetrahydropyrazolo[1,5-a]pyridin-6-yl]methanesulfonamide]"
2,94,"CC(C)n1cc2c(n1)[C@@H](COC1CCN(c3ncc(F)cn3)CC1)[C@@H](NS(C)(=O)=O)CC2 (racemic) [Example 44, rac-N-[(6S,7S)-7-({[1-(5-fluoropyrimidin-2-yl)piperidin-4-yl]oxy}methyl)-2-(propan-2-yl)-4,5,6,7-tetrahydro-2H-indazol-6-yl]methanesulfonamide]"
3,101,"CCc1cc2n(n1)[C@@H](COC1CCN(c3ncccn3)CC1)[C@@H](NS(=O)(=O)CC)CC2 (racemic) [Example 45, rac-N-[(6S,7R)-2-ethyl-7-({[1-(pyrimidin-2-yl)piperidin-4-yl]oxy}methyl)-4,5,6,7-tetrahydropyrazolo[1,5-a]pyridin-6-yl]ethanesulfonamide]"
4,98,"CC(C)n1cc2c(n1)[C@@H](COC1CCN(c3ncccn3)CC1)[C@@H](NS(C)(=O)=O)CC2 (racemic) [Example 47, rac-N-[(6S,7S)-2-(propan-2-yl)-7-({[1-(pyrimidin-2-yl)piperidin-4-yl]oxy}methyl)-4,5,6,7-tetrahydro-2H-indazol-6-yl]methanesulfonamide]"
5,92,"CC(O)c1nn2c(c1Cl)CCC(NS(C)(=O)=O)C2COC1CCN(c2ncccn2)CC1 (racemic) [Example 50, N-[(6SR,7RS)-3-chloro-2-(1-hydroxyethyl)-7-({[1-(pyrimidin-2-yl)piperidin-4-yl]oxy}methyl)-4,5,6,7-tetrahydropyrazolo[1,5-a]pyridin-6-yl]methanesulfonamide]"
6,95,"CCc1nn2c(c1Br)CC[C@H](NS(C)(=O)=O)[C@@H]2COC1CCN(c2ncc(F)cn2)CC1 (racemic) [Example 52, rac-N-[(6S,7R)-3-bromo-2-ethyl-7-({[1-(5-fluoropyrimidin-2-yl)piperidin-4-yl]oxy}methyl)-4,5,6,7-tetrahydropyrazolo[1,5-a]pyridin-6-yl]methanesulfonamide]"
7,72,"Cc1ccc2c(n1)[C@@H](Cc1cccc(-c3ccccc3)c1)[C@@H](NS(C)(=O)=O)CC2 (racemic) [Example 62, rac-N-{(7S,8S)-8-[([1,1′-biphenyl]-3-yl)methyl]-2-methyl-5,6,7,8-tetrahydroquinolin-7-yl}methanesulfonamide]"
8,111,"CC(C)c1cc2n(n1)[C@@H](COC1CCN(c3ncc(F)cn3)CC1)[C@@H](NS(C)(=O)=O)CC2 (relative stereo) [Example 24, rel-N-[(6S,7R)-7-({[1-(5-fluoropyrimidin-2-yl)piperidin-4-yl]oxy}methyl)-2-(propan-2-yl)-4,5,6,7-tetrahydropyrazolo[1,5-a]pyridin-6-yl]methanesulfonamide]"
9,91,"CCc1cc2n(n1)[C@@H](COC1CCN(c3ncc(F)cn3)CC1)[C@@H](NS(C)(=O)=O)CC2 (relative stereo) [Example 33, rel-N-[(6S,7R)-2-ethyl-7-({[1-(5-fluoropyrimidin-2-yl)piperidin-4-yl]oxy}methyl)-4,5,6,7-tetrahydropyrazolo[1,5-a]pyridin-6-yl]methanesulfonamide]"
10,100,"CC(C)c1cc2n(n1)[C@@H](COC1CCN(c3ncccn3)CC1)[C@@H](NS(C)(=O)=O)CC2 (relative stereo) [Example 56, rel-N-[(6S,7R)-2-(propan-2-yl)-7-({[1-(pyrimidin-2-yl)piperidin-4-yl]oxy}methyl)-4,5,6,7-tetrahydropyrazolo[1,5-a]pyridin-6-yl]methanesulfonamide]"
11,94,"Cc1cn2c(n1)[C@@H](Cc1cccc(-c3cccc(F)c3)c1)[C@@H](NS(C)(=O)=O)CC2 (relative stereo) [Example 57, rel-N-{(7S,8S)-8-[(3′-fluoro[1,1′-biphenyl]-3-yl)methyl]-2-methyl-5,6,7,8-tetrahydroimidazo[1,2-a]pyridin-7-yl}methanesulfonamide]"
12,95,"CCS(=O)(=O)N[C@H]1CCn2cc(C)nc2[C@H]1Cc1cccc(-c2cccc(F)c2)c1 (relative stereo) [Example 58, rel-N-{(7S,8S)-8-[(3′-fluoro[1,1′-biphenyl]-3-yl)methyl]-2-methyl-5,6,7,8-tetrahydroimidazo[1,2-a]pyridin-7-yl}ethanesulfonamide]"
13,101,"CCc1cc2n(n1)[C@@H](COC1CCN(c3ncccn3)CC1)[C@@H](NS(C)(=O)=O)CC2 (relative stereo) [Example 59, rel-N-[(6S,7R)-2-ethyl-7-({[1-(pyrimidin-2-yl)piperidin-4-yl]oxy}methyl)-4,5,6,7-tetrahydropyrazolo[1,5-a]pyridin-6-yl]methanesulfonamide]"
14,92,"Cc1cn2c(n1)C(COC1CCN(c3ncc(F)cn3)CC1)C(NC(=O)[C@@H]1CCCO1)CC2 (stereo in doubt) [Example 63, (2S)—N-[(7S*,8S*)-8-({[1-(5-fluoropyrimidin-2-yl)piperidin-4-yl]oxy}methyl)-2-methyl-5,6,7,8-tetrahydroimidazo[1,2-a]pyridin-7-yl]oxolane-2-carboxamide]"
